In ChEMBL document CHEMBL1201862, “PubChem BioAssay data set” (2004):
The source made the active and inactive calls.

Experiments:
[1] = molecular target: Luciferin 4-monooxygenase (Photinus pyralis, UniProt P08659); test: Counter Screen for Luciferase-based Assay Positives. [Related pubchem assays: 620, 618, 411 ]
[2] = test system: HEK293; test: inhibitors of LMP1-driven NF-kB reporter, dose response, cell-based, HEK293, luciferase, cherry-pick (AID 588343); assay type: functional; settings: Homo sapiens
[3] = test system: HT-1080; test: cytotoxicity in HT1080 fibrosarcoma cells, cell-based, fluorescence readout (AID 620); assay type: functional; settings: Homo sapiens
[4] = molecular target: Dual specificity protein phosphatase 3 (Homo sapiens, UniProt P51452); test: VHR1 inhibitor Ki determination, SAR follow-up, biochemical, colorimetric (AID 2004)
[5] = molecular target: Cytochrome P450 3A4 (Homo sapiens, UniProt P08684); settings: Potency;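 further: confirmatory qHTS run detecting inhibitors and substrates of CYP3A4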
[6] = molecular target: Cytochrome P450 2C9 (Homo sapiens, UniProt P11712); settings: Potency
[7] = molecular target: Melanin-concentrating hormone receptor 1 (Homo sapiens, UniProt Q99705); test: Fluorescence-based counterscreen for antagonists of the G-protein coupled receptor 7 (GPR7): cell-based high throughput dose response assay to identify antagonists of the melanin-concentrating hormone receptor 1 (MCHR1).; assay type: functional
[8] = molecular target: NS3 (Hepatitis C virus, UniProt A3EZJ3); test: PubChem AID 2173; design: species or system Hepacivirus hominis
[9] = cells; assay type: functional, cell-based
[10] = molecular target: Paired box protein Pax-8 (Homo sapiens, UniProt Q06710); test: inhibitors of PAX8-driven TPO luciferase reporter, dose response, RMG-I cells, cherry-pick (AID 687027); assay type: functional, cell-based;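 further: luciferase reporter driven by Pax8 target thyroperoxidase promoter measured by SteadyGlo luminescence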
[11] = Luminescence-based counterscreen assay for KLF5 inhibitors: dose response cell-based high throughput screening assay to identify cytotoxic compounds using the IEC-6 intestinal epithelial cell line. [Related pubchem assays: 1700 (Primary screen.), 1834 (Confirmation screen.), 1858 (Summary AID.), 1905 (Counterscreen.)]; assay type: functional
[12] = cytotoxicity in HEK-293T NF-kB-Luc cells, dose response, cytotoxicity control for B/T-cell NF-kB inhibitor project, cell-based, uHTS hits (AID 489019); assay type: functional;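 further: IC50 reflects cytotoxicity as loss of cell viability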
[13] = inhibitors of HIV Env-driven cell fusion, dose response, cherry-pick (AID 652057); assay type: functional, cell-based
[14] = Luminescence Cell-Based Dose Response HTS to Identify Inhibitors of 5'UTR Stem-Loop Driven Prion Protein mRNA Translation in H4 Neuroglioblastoma Cells. [Related pubchem assays: 1827 (Project Summary), 1813 (Primary HTS)]; assay type: functional
[15] = ZM109 Env clade C HIV-1 fusion inhibitors, dose response, HeLa effector, CEM target cells, luciferase, cherry-pick (AID 652058); assay type: functional, cell-based
[16] = inhibitors of firefly luciferase expression or activity, dose response, H4 neuroglioma cells, luminescence (AID 1990); assay type: functional, cell-based
[17] = inhibitors of SNCA 5'UTR-driven reporter translation, confirmation, H4 neuroglioma cells, luminescence (AID 1988); assay type: functional, cell-based
[18] = inhibitors of clade B AD8 Env fusion, dose response, cell-based, cherry-pick (AID 652062); assay type: functional;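 further: luciferase signal from cell-cell fusion driven by HIV-1 clade B AD8 Env; potency is for inhibitors of fusion seen as a drop in luminescence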
[19] = luciferase reporter signal reduction – luminescence, H4-C neuroglioblastoma cells, dose response (AID 2458); assay type: functional, cell-based;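 further: H4 neuroglioblastoma cells stably carrying a luciferase reporter gene fusion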
[20] = inhibitors of SNCA 5'UTR-driven translation, confirmation, luminescence, H4 neuroglioblastoma cells, dose confirmation (AID 2454); assay type: functional, cell-based;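 further: H4 neuroglioblastoma cells carrying an alpha-synuclein 5'UTR luciferase reporter; potency for inhibition of the luciferase signal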
[21] = test system: Jurkat; test: antigen receptor-induced NF-kB inhibitors, dose response, Jurkat, luciferase reporter, luminescence, B- and T-cell (AID 489004); assay type: functional, cell-based; settings: Homo sapiens;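 further: NF-kB luciferase reporter Jurkat cells stimulated with PMA plus ionomycin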
[22] = off-target signal loss in HeLa-CEM21 co-culture – HeLa F-luc CTL cells, cherry-picked, counter-screen for HIV-1 Env fusion inhibitor project, dose response (AID 652040); assay type: functional, cell-based;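 further: potency for signal decrease marking cytotoxic or nonspecific inhibition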
[23] = molecular target: Neurotensin receptor type 1 (Homo sapiens, UniProt P30989); assay type: functional;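 further: Image-based confirmatory dose-response assay measuring agonist activity at NTR1; NTR1-expressing U2OS osteosarcoma cells imaged for beta-arrestin GFP spot formation; agonist potency where compounds increase beta-arrestin recruitment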
Neurotensin receptor type 1, sequence (P30989 whole entry): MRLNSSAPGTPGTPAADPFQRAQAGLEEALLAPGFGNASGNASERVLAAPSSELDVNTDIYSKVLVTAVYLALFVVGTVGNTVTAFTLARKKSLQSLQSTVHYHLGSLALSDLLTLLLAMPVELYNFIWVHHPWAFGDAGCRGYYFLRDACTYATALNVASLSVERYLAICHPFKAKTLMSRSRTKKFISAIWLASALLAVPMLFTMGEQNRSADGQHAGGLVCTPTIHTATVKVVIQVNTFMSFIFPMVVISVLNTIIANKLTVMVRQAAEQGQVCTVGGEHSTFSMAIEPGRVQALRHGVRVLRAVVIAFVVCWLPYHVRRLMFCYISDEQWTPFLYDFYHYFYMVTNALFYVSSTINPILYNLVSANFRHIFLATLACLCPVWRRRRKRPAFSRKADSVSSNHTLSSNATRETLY

Dual specificity protein phosphatase 3, sequence (P51452 whole entry): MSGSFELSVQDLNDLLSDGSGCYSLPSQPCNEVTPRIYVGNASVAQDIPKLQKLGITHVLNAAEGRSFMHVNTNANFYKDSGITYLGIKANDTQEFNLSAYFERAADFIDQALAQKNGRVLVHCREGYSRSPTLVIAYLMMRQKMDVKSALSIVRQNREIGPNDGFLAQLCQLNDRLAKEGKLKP
Luciferin 4-monooxygenase, sequence (P08659 whole entry): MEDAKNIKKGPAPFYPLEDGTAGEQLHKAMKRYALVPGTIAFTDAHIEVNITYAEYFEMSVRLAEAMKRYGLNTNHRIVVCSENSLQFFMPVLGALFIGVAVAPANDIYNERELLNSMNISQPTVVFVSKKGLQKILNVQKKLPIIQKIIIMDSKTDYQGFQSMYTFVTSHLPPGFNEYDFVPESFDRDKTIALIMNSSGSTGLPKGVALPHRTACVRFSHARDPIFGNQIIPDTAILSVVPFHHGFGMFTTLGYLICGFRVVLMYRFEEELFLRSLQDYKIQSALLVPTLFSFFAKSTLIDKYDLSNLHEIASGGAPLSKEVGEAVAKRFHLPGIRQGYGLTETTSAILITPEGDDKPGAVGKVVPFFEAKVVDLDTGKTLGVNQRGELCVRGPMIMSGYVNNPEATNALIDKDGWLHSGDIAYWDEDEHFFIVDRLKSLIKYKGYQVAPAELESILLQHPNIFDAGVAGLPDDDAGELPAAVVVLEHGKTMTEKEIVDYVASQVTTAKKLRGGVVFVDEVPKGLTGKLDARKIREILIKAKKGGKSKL
Melanin-concentrating hormone receptor 1, sequence (Q99705 whole entry): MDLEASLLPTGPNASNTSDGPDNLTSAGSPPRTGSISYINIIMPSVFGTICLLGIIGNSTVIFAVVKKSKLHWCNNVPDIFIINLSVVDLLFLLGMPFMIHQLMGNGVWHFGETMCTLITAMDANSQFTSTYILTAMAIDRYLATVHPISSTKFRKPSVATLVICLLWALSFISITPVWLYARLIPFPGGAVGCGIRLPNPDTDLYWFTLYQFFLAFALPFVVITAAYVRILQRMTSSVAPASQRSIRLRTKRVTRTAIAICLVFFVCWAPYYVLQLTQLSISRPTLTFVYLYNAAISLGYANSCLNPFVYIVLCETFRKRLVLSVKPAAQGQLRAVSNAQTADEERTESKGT
NS3, sequence (A3EZJ3 whole entry): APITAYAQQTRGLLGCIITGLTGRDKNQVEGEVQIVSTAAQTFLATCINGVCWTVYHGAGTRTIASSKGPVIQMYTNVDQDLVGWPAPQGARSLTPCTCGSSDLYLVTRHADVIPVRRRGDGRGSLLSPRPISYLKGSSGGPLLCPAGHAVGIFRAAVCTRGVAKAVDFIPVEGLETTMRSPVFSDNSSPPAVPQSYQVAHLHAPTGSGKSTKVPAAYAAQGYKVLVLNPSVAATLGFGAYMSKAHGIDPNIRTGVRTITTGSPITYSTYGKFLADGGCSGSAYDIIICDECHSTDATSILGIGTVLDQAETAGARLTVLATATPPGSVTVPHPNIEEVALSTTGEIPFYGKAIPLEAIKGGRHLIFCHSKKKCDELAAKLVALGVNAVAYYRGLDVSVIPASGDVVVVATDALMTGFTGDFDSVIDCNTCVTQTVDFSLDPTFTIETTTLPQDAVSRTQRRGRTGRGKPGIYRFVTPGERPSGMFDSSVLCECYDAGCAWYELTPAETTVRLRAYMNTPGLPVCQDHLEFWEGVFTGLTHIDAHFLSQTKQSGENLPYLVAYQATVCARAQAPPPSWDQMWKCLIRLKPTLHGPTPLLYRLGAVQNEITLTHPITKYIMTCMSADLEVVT
Cytochrome P450 3A4, sequence (P08684 whole entry): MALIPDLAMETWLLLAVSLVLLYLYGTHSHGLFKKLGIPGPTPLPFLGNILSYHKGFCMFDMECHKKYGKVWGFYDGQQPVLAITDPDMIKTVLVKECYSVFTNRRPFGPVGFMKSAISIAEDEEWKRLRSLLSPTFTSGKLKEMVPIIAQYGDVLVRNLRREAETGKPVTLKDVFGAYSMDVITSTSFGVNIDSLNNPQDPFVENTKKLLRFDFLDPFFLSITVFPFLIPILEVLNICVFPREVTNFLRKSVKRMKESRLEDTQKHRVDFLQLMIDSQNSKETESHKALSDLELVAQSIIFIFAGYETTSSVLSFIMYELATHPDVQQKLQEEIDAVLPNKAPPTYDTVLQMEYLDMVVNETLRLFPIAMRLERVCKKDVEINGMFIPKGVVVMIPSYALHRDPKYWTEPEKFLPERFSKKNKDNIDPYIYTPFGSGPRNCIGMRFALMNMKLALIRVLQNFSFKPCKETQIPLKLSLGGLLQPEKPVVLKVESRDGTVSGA
Cytochrome P450 2C9, sequence (P11712 whole entry): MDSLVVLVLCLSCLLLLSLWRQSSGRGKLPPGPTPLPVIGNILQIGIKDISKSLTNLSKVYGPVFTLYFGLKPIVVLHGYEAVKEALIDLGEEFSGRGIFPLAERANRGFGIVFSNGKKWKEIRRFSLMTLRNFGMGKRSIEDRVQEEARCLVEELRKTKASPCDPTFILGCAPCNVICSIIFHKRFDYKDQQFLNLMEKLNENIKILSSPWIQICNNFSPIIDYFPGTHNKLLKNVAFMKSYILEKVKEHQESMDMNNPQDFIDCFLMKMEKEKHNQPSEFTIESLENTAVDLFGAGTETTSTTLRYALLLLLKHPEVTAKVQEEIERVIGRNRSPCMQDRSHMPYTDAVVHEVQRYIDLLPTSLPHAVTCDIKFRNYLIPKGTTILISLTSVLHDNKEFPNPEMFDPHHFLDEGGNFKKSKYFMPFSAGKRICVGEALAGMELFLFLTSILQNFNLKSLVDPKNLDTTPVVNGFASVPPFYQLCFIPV
Paired box protein Pax-8, sequence (Q06710 whole entry): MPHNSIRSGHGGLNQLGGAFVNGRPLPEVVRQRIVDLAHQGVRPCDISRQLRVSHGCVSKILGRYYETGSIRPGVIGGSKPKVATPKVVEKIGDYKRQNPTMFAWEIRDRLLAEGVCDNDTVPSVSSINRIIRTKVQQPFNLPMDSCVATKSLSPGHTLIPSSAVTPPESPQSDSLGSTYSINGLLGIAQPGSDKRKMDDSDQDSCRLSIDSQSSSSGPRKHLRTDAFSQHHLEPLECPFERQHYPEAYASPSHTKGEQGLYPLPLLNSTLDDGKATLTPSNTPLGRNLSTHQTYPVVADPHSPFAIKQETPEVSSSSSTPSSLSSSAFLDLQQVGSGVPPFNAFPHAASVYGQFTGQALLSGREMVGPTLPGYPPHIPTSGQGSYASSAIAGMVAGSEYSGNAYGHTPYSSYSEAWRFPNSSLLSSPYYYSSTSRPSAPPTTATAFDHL

Cc1ccc(C(=O)Nc2cccc(C(=O)O)c2)cc1S(=O)(=O)N1CCCCC1
EC50 [1]: < 0.2 µM (active) | AC50 [2]: 3.76 µM (active) | EC50 [3]: > 50 µM (not active)

CC(C)C1SC(N/N=C/c2ccc(O)cc2)=NC1=O (stereo not drawn)
Ki [4]: 36.1 µM (inactive)

O=c1c(O)c(-c2ccc(O)cc2)oc2ccc(O)cc12
AC50 [5]: 12.6 µM (inconclusive) | AC50 [6]: 10 µM (inconclusive)

Cc1ccc(C2C3=C(NCCN=C3c3ccccc3)C(=O)N2c2ccccc2)cc1 (stereo not drawn)
IC50 [7]: > 14.6 µM (not active)

Cc1cc(Cl)ccc1Oc1ccccc1C(=O)CC#N
IC50 [8]: 3.54 µM (active)

O=C(NCCc1ccccc1F)c1ccc2c(c1)OCCO2
EC50 [9]: 0.316 µM (active) | AC50 [10]: 2.18 µM (active) | IC50 [11]: > 39.8 µM (not active) | IC50 [12]: > 80 µM (inactive) | AC50 [13]: 2.14 µM (active) | EC50 [14]: < 0.1 µM (active) | AC50 [15]: 8.11 µM (active) | EC50 [16]: 0.16 µM (active) | EC50 [17]: 0.113 µM (active) | AC50 [18]: 1.25 µM (active) | EC50 [19]: 0.258 µM (active) | EC50 [20]: 0.151 µM (active) | IC50 [21]: 0.77 µM (active) | AC50 [22]: 3.21 µM (active)

O=C(COC(=O)/C=C/C(=O)OCC(=O)NC12CC3CC(CC(C3)C1)C2)NC12CC3CC(CC(C3)C1)C2
EC50 [23]: > 40 µM (inactive)
